Data as given in US8729035B2, “Synthesis of novel neamine derivatives and use thereof as antibacterial agents” (Universite Joseph Fourier, priority 2008, dated 2014).
Values after ≈ are worked out from the molar mass of the structure shown. Where two headings read alike, the source gives them in different places.

Experiments:
Experiment in all cases: MIC determination on r-methylase-expressing resistant Gram (-) bacteria
[1] = tested on: C. amalonaticus 06AB0010 arm; assay type: cell-based; conditions: Citrobacter amalonaticus, 06AB0010ARM
Protocol: (§1) The molecules were dissolved in water or DMSO at a concentration of 5 or 10 mg/mL, then the solutions were diluted if necessary. A volume of 200 μL of each of them was put onto a 96-well plate.
(§2) C—Determination of the MIC
(§3) The molecules with a screening score of 10 or 100 were selected to determine their MICs relative to the strains tested.
(§4) As for the validation of the strains, the solution of the molecule selected was diluted by a factor of 2, times 2, using the Biomek2000 robot in 96-well plates to cover a wide range of concentrations. To each of these wells was added a volume of inoculum made from the previous days preculture diluted to 1/100th strength. Each well was repeated. Again, controls of non-contamination, growth and resistance/sensitivity to a reference antibiotic were included in the experiment. The plate was incubated at 37° C., and the kinetics of the bacterial proliferation were monitored over 24 hours, by measuring the OD620 nm at 0, 1, 4, 7, and 24 hours.
(§5) The MIC was the lowest concentration found to be capable of inhibiting bacterial proliferation after 24 hours incubation. Having no previous idea of this value it was possible that it might not fall within the range of dilutions chosen. If this was the case the operation had to be repeated adjusting this range.
(§6) Similar measurements were made on various Gram (−) bacteria. The strains tested were provided by R. Vanhoof (E. coli PAZ505H8101 and L58058.1, P. aeruginosa ATCC 27853, Psa.F03, A. lwoffi A1.88-483), Y. Glupczynski (C. amalonaticus Ca06AB0010), J. C. Pechere (P. aeruginosa PA02, PA03), P. Plésiat (P. aeruginosa PA01, PA21, PA22), H. Schweizer (P. aeruginosa PA405, PA406).

[2] = tested on: E. coli 06AB003 arm; assay type: cell-based; conditions: Escherichia coli, 06AB003ARM, 24 h
Protocol: as §1, §2, §3, §4, §5, §6

[3] = tested on: E. aerogenes 06AB008 arm; assay type: cell-based, Enterobacter aerogenes; conditions: Klebsiella aerogenes, 06AB008ARM, 24 h
Protocol: as §1, §2, §3, §4, §5, §6

Row | SMILES | MIC ([1]; resistant bacteria expressing an RNA methylation enzyme (r-methylase), one value stated for the three strains together, 24 hours incubation, read-out: MIC) | MIC [2] | MIC [3] | MIC ([1]; 24 h)
1 | NCC1OC(OC2C(N)CC(N)C(OCc3cccc4ccccc34)C2O)C(N)C(OCc2cccc3ccccc23)C1O (stereo not drawn) [3′,6-di1NM, 3′,6-O,O′-di(naphthyl-1-methylene) neamine] | 4 to 16 µg/mL (≈ 6.64 to 26.5 µM) | 4 to 16 µg/mL (≈ 6.64 to 26.5 µM) | 4 to 16 µg/mL (≈ 6.64 to 26.5 µM) | –
2 | NC[C@H]1O[C@H](O[C@H]2[C@H](O)[C@@H](O[C@H]3O[C@H](CO)[C@@H](O)[C@H](N)[C@H]3O)[C@H](N)C[C@@H]2N)[C@H](N)C[C@@H]1O [tobramycin] | – | > 128 µg/mL | > 128 µg/mL | > 128 µg/mL
3 | NCC[C@H](O)C(=O)N[C@@H]1C[C@H](N)[C@@H](O[C@H]2O[C@H](CN)[C@@H](O)[C@H](O)[C@H]2O)[C@H](O)[C@H]1O[C@H]1O[C@H](CO)[C@@H](O)[C@H](N)[C@H]1O [amikacin] | – | > 128 µg/mL | > 128 µg/mL | > 128 µg/mL
